Measured values published in patent US11076594B2, “Pyrazolone compound or salt thereof, preparation method therefor, herbicide composition and use thereof” (QINGDAO KINGAGROOT CHEMICAL COMPOUNDS CO., LTD., priority 2015, dated 2021).

How the values were obtained:
Assay type in all cases: in vivo
Settings in all cases: post-emergence spray at 4-5 leaf stage, 250 g/ha active ingredient with 450 kg/ha water, rated after 3 weeks in greenhouse
[1] = test system: rice; test: post-emergence stage experiment, crop (Table 1); parameters: key: Level 10: completely dead; Level 9: above 95% growth control rate; Level 8: above 90% growth control rate; Level 7: above 80% growth control rate; Level 6: above 70% growth control rate; Level 5: above 60% growth control rate; Level 4: above 50% growth control rate; Level 3: above 20% growth control rate; Level 2: 5%-20% growth control rate; Level 1: below 5% growth control rate
Summary of the method: (§1)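 Weed and crop seeds sown in soil-filled pots under 0.5-2 cm soil, greenhouse-grown, then sprayed at 4-5 leaf stage (2-3 weeks after sowing) with compound in acetone/Tween 80/water. Fresh weight growth control rate assessed after 3 weeks in greenhouse.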

[2] = test system: foxtail; test: weed control effect in post-emergence stage (Table 1); parameters: key: Level 10: completely dead; Level 9: above 95% growth control rate; Level 8: above 90% growth control rate; Level 7: above 80% growth control rate; Level 6: above 70% growth control rate; Level 5: above 60% growth control rate; Level 4: above 50% growth control rate; Level 3: above 20% growth control rate; Level 2: 5%-20% growth control rate; Level 1: below 5% growth control rate
Summary of the method: as §1

[3] = test system: Indian mallow; test: as above; parameters: key: Level 10: completely dead; Level 9: above 95% growth control rate; Level 8: above 90% growth control rate; Level 7: above 80% growth control rate; Level 6: above 70% growth control rate; Level 5: above 60% growth control rate; Level 4: above 50% growth control rate; Level 3: above 20% growth control rate; Level 2: 5%-20% growth control rate; Level 1: below 5% growth control rate
Summary of the method: as §1

[4] = test system: rorippa indica; test: as above; parameters: key: Level 10: completely dead; Level 9: above 95% growth control rate; Level 8: above 90% growth control rate; Level 7: above 80% growth control rate; Level 6: above 70% growth control rate; Level 5: above 60% growth control rate; Level 4: above 50% growth control rate; Level 3: above 20% growth control rate; Level 2: 5%-20% growth control rate; Level 1: below 5% growth control rate
Summary of the method: as §1

[5] = test system: echinochloa; test: as above; parameters: key: Level 10: completely dead; Level 9: above 95% growth control rate; Level 8: above 90% growth control rate; Level 7: above 80% growth control rate; Level 6: above 70% growth control rate; Level 5: above 60% growth control rate; Level 4: above 50% growth control rate; Level 3: above 20% growth control rate; Level 2: 5%-20% growth control rate; Level 1: below 5% growth control rate
Summary of the method: as §1

[6] = test system: bidens bipinnata; test: as above; parameters: key: Level 10: completely dead; Level 9: above 95% growth control rate; Level 8: above 90% growth control rate; Level 7: above 80% growth control rate; Level 6: above 70% growth control rate; Level 5: above 60% growth control rate; Level 4: above 50% growth control rate; Level 3: above 20% growth control rate; Level 2: 5%-20% growth control rate; Level 1: below 5% growth control rate
Summary of the method: as §1

[7] = test system: crab grass; test: as above; parameters: key: Level 10: completely dead; Level 9: above 95% growth control rate; Level 8: above 90% growth control rate; Level 7: above 80% growth control rate; Level 6: above 70% growth control rate; Level 5: above 60% growth control rate; Level 4: above 50% growth control rate; Level 3: above 20% growth control rate; Level 2: 5%-20% growth control rate; Level 1: below 5% growth control rate
Summary of the method: as §1

[8] = test system: corn; test: post-emergence stage experiment, crop (Table 1)
Summary of the method: as §1

[9] = test system: wheat; test: post-emergence stage experiment, crop (Table 1)
Summary of the method: as §1

SMILES	effect on crop, Rice (level) [1]	weed control effect, Green foxtail (level) [2]	weed control effect, Indian mallow (level) [3]	weed control effect, Rorippa indica (level) [4]	weed control effect, Echinochloa (level) [5]	weed control effect, Bidens bipinnata (level) [6]	weed control effect, Crab grass (level) [7]	effect on crop, Corn (level) [8]	effect on crop, Wheat (level) [9]
CCn1ncc(C(=O)c2ccc(C(F)(F)F)c(N3CCCCC3=O)c2Cl)c1O [Compound 106]	9 (Level 9: above 95% growth control rate)	3 (Level 3: above 20% growth control rate)	7 (Level 7: above 80% growth control rate)	5 (Level 5: above 60% growth control rate)	10	6 (Level 6: above 70% growth control rate)	6 (Level 6: above 70% growth control rate)	3 (Level 3: above 20% growth control rate)	3 (Level 3: above 20% growth control rate)
CCn1ncc(C(=O)c2ccc(C(F)(F)F)c(N3CCCCC3=O)c2Cl)c1OC(=O)c1cn(C)nc1C [Compound 107]	8 (Level 8: above 90% growth control rate)	10	10	6 (Level 6: above 70% growth control rate)	10	9 (Level 9: above 95% growth control rate)	8 (Level 8: above 90% growth control rate)	5 (Level 5: above 60% growth control rate)	5 (Level 5: above 60% growth control rate)
CCc1nn(C)c(O)c1C(=O)c1ccc(C(F)(F)F)c(N2CCCCC2=O)c1Cl [Compound 110]	10	10	9 (Level 9: above 95% growth control rate)	10	9 (Level 9: above 95% growth control rate)	5 (Level 5: above 60% growth control rate)	2 (Level 2: 5%-20% growth control rate)	0	2 (Level 2: 5%-20% growth control rate)
CCc1nn(CC)c(O)c1C(=O)c1ccc(C(F)(F)F)c(N2CCCCC2=O)c1Cl [Compound 112]	7 (Level 7: above 80% growth control rate)	5 (Level 5: above 60% growth control rate)	5 (Level 5: above 60% growth control rate)	2 (Level 2: 5%-20% growth control rate)	10	1 (Level 1: below 5% growth control rate)	6 (Level 6: above 70% growth control rate)	3 (Level 3: above 20% growth control rate)	3 (Level 3: above 20% growth control rate)
CCn1ncc(C(=O)c2ccc(C(F)(F)F)c(N3CCCCCC3=O)c2Cl)c1OC(=O)c1cn(C)nc1C [Compound 117]	9 (Level 9: above 95% growth control rate)	10	9 (Level 9: above 95% growth control rate)	5 (Level 5: above 60% growth control rate)	10	10	3 (Level 3: above 20% growth control rate)	0	0
CCn1nc(C)c(C(=O)c2ccc(C(F)(F)F)c(N3CCCCCC3=O)c2Cl)c1O [Compound 118]	1 (Level 1: below 5% growth control rate)	10	0	5 (Level 5: above 60% growth control rate)	9 (Level 9: above 95% growth control rate)	1 (Level 1: below 5% growth control rate)	1 (Level 1: below 5% growth control rate)	2 (Level 2: 5%-20% growth control rate)	1 (Level 1: below 5% growth control rate)
CCc1nn(CC)c(O)c1C(=O)c1ccc(C(F)(F)F)c(N2CCCCCC2=O)c1Cl [Compound 122]	5 (Level 5: above 60% growth control rate)	10	5 (Level 5: above 60% growth control rate)	0	9 (Level 9: above 95% growth control rate)	5 (Level 5: above 60% growth control rate)	3 (Level 3: above 20% growth control rate)	0	1 (Level 1: below 5% growth control rate)
CCc1nn(CC)c(OC(=O)c2cn(C)nc2C)c1C(=O)c1ccc(C(F)(F)F)c(N2CCCCCC2=O)c1Cl [Compound 123]	7 (Level 7: above 80% growth control rate)	6 (Level 6: above 70% growth control rate)	10	3 (Level 3: above 20% growth control rate)	10	7 (Level 7: above 80% growth control rate)	3 (Level 3: above 20% growth control rate)	4 (Level 4: above 50% growth control rate)	1 (Level 1: below 5% growth control rate)
CCn1nc(C2CC2)c(C(=O)c2ccc(C(F)(F)F)c(N3CCCCCC3=O)c2Cl)c1OC(=O)c1cn(C)nc1C [Compound 125]	10	10	10	4 (Level 4: above 50% growth control rate)	8 (Level 8: above 90% growth control rate)	10	10	5 (Level 5: above 60% growth control rate)	2 (Level 2: 5%-20% growth control rate)
CCn1ncc(C(=O)c2ccc(C(F)(F)F)c(-n3cccn3)c2Cl)c1OC(=O)c1cn(C)nc1C [Compound 127]	7 (Level 7: above 80% growth control rate)	10	10	10	10	10	3 (Level 3: above 20% growth control rate)	1 (Level 1: below 5% growth control rate)	1 (Level 1: below 5% growth control rate)
CCc1nn(C)c(O)c1C(=O)c1ccc(C(F)(F)F)c(-n2cccn2)c1Cl [Compound 130]	7 (Level 7: above 80% growth control rate)	10	0	10	10	3 (Level 3: above 20% growth control rate)	3 (Level 3: above 20% growth control rate)	4 (Level 4: above 50% growth control rate)	2 (Level 2: 5%-20% growth control rate)
